In PubChem BioAssay AID1963846 (Molecular Pharmacology Branch, DTP, NCI, 2024):
pIC50: −log10 of the molar value.

System: 454973-116-R2-J3-PDC complex spheroid viability
Assay: Anticancer human tumor 454973-116-R2-J3-PDC patient-derived pancreatic carcinoma cell line growth inhibition [POLQ]
Details: for pIC50: curve of first compound; for viability, T/C: stronger effect = lower value
Experimental: Multicellular complex tumor spheroid response to Polymerase (POL) inhibitors (novobiocin, ART-558, RP6685) in combination with a variety of drugs and investigational agents in selected tumor cell lines
The POL inhibitors (novobiocin, ART-558, and RP6685) were evaluated both individually and in combination with standard of care and investigational anticancer small molecules within a complex spheroid model of solid tumors. . Complex spheroids include a stromal component modeled by human endothelial cells (HUVEC) and fibroblasts modeled by human mesenchymal stem cells (MSCs). The concentration ranges selected for each drug and investigational agent were based upon clinically achievable concentrations if the clinical Cmax of the agent was known.
Compounds. The drugs and investigational agents: novobiocin (NSC847541), ART-558 (NSC835418), RP-6685 (NSC848927), peposertib (NSC802822), ceralasertib (NSC780249), elimusertib (NSC800525), camonsertib (NSC841442), AZD-1390 (NSC803789), olaparib (NSC753686), talazoparib (NSC767125), rucaparib (NSC756644), sotorasib (NSC818433), MRTX-1133 (NSC836407), SN-38 (NSC673596), topotecan (NSC609699), epotoside (NSC141540), doxorubicin (NSC123127), gemcitabine (NSC613327), 5-fluorouracil (NSC19893), paclitaxel (NSC125973), vemurafenib (NSC761431), MSA-2 (NSC828583), SN-011 (NSC837082), adavosertib (NSC754352), prexasertib (NSC758257), carboplatin (NSC241240) and oxaliplatin (NSC266046), were obtained from the National Cancer Institute (NCI) Developmental Therapeutics Program Chemical Repository (21). The FDA-approved anticancer drug set is available from the Developmental Therapeutics Program at https://dtp.cancer.gov/organization/dscb/obtaining/. […] The stock solutions were prepared in dimethyl sulfoxide (DMSO, Sigma-Aldrich, St. Louis, MO, cat. D2650), except for the platinum compounds which were prepared in saline (Quality Biological, Gaithersburg, MD, cat. 114-055-101), at 800-fold the tested concentration and stored at -70 degrees C prior to their use. All drugs and investigational agents were tested over a range starting from a high concentration at or near the clinical Cmax and decreasing in half-log increments. If the clinical Cmax for an agent had not been determined, the highest concentration tested was 10 microM, except for SN-38, which was tested at a high concentration of 1 microM.
Cell Culture. All cells were maintained in an incubator at 37 degrees C and 5% CO2 with 95% humidity. The PDC lines were cultured according to standard operating procedures established by the NCI PDMR (https://pdmr.cancer.gov). Table 3 of the manuscript, lists the cell lines along with the number of the three cell types plated to form the mct-spheroids and media for tumor cell growth. After thawing, all PDC lines, except 997537-175-T-J1-PDC and 415267-285-R-J2-PDC, were cultured in Matrigel-coated flasks prepared with a working solution of 1X Ham's F-12 nutrient mix, without supplementation (Thermo Fisher Scientific, cat. 11765054), 100 U/mL penicillin-streptomycin (Thermo Fisher Scientific, cat. 15140122), and 2.5% Matrigel (Corning Inc., Corning, NY, cat. 354248) for the first three passages. The two PDC lines 997537-175-T-J1-PDC and 415267-285-R-J2-PDC were cultured on uncoated flasks. The 857933-349-R-J2-PDC line was cultured in 6C/Colon 1B media containing advanced DMEM/F-12 (Thermo Fisher Scientific, cat. 12634028), 10 mM HEPES (Thermo Fisher Scientific, cat. 15630080), 1X GlutaMAX supplement (Thermo Fisher Scientific, cat. 35050061), 0.1 mg/mL primocin (InvivoGen, San Diego, CA, cat. ant-pm-2), 10% defined fetal bovine serum, heat inactivated (HyClone Laboratories Inc., Logan, UT, cat. SH30070.03HI), 50% L-WRN conditioned media (ATCC, cat. CRL-3276), 1.25 mM N-Acetyl-L-cysteine (Sigma-Aldrich, cat. A9165), 10 mM nicotinamide (Sigma-Aldrich, cat. N0636), 1X B-27 supplement (Thermo Fisher Scientific, cat. 17504044), 1X N-2 supplement (Thermo Fisher Scientific, cat. […]

[1] = second compound 0.0316 µM, first compound 0.0316 µM
[2] = second compound 0.0316 µM, first compound 0.1 µM
[3] = second compound 0.0316 µM, first compound 0.316 µM
[4] = second compound 0.0316 µM, first compound 1 µM
[5] = second compound 0.0316 µM, first compound 3.16 µM
[6] = second compound 0.0316 µM, first compound 10 µM
[7] = second compound 0.1 µM, first compound 0.0316 µM
[8] = second compound 0.1 µM, first compound 0.1 µM
[9] = second compound 0.1 µM, first compound 0.316 µM
[10] = second compound 0.1 µM, first compound 1 µM
[11] = second compound 0.1 µM, first compound 3.16 µM
[12] = second compound 0.1 µM, first compound 10 µM
[13] = second compound 0.316 µM, first compound 0.0316 µM
[14] = second compound 0.316 µM, first compound 0.1 µM
[15] = second compound 0.316 µM, first compound 0.316 µM
[16] = second compound 0.316 µM, first compound 1 µM
[17] = second compound 0.316 µM, first compound 3.16 µM
[18] = second compound 0.316 µM, first compound 10 µM
[19] = second compound 1 µM, first compound 0.0316 µM
[20] = second compound 1 µM, first compound 0.1 µM
[21] = second compound 1 µM, first compound 0.316 µM
[22] = second compound 1 µM, first compound 1 µM
[23] = second compound 1 µM, first compound 3.16 µM
[24] = second compound 1 µM, first compound 10 µM
[25] = second compound 3.16 µM, first compound 0.0316 µM
[26] = second compound 3.16 µM, first compound 0.1 µM
[27] = second compound 3.16 µM, first compound 0.316 µM
[28] = second compound 3.16 µM, first compound 1 µM
[29] = second compound 3.16 µM, first compound 3.16 µM
[30] = second compound 3.16 µM, first compound 10 µM
[31] = second compound 10 µM, first compound 0.0316 µM
[32] = second compound 10 µM, first compound 0.1 µM
[33] = second compound 10 µM, first compound 0.316 µM
[34] = second compound 10 µM, first compound 1 µM
[35] = second compound 10 µM, first compound 3.16 µM
[36] = second compound 10 µM, first compound 10 µM
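Note: spheroids exposed to drugs for seven days before measurement.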
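Throughout, for viability, T/C: percent viability relative to DMSO vehicle control wells taken as 100%.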

Compound `CCc1cc2c(N3CCc4c(cc(Cn5ccnc5)cc4-c4cn(C)nc4C(F)(F)F)C3=O)ccnc2c(OC)n1` + Cc1cccc(N(C)C(=O)C2C(O)CCN2c2nc(C)cc(C(F)(F)F)c2C#N)c1 has a pIC50 (second compound 0.0316 µM) of under 5.00, a pIC50 (second compound 0.1 µM) of under 5.00 and a pIC50 (second compound 0.316 µM) of under 5.00. For the same compound, the pIC50 (second compound 1 µM) was under 5.00, the pIC50 (second compound 3.16 µM) was under 5.00 and the pIC50 (second compound 10 µM) was under 5.00. It also gave a viability, T/C [1] of 89.3%, a viability, T/C [2] of 86.2% and a viability, T/C [3] of 93.7%. It also gave a viability, T/C [4] of 77.8%, a viability, T/C [5] of 82.2% and a viability, T/C [6] of 62%. For the same compound, the viability, T/C [7] was 102%, the viability, T/C [8] was 86% and the viability, T/C [9] was 82%. The viability, T/C [10] was 85.9%, the viability, T/C [11] was 69.3% and the viability, T/C [12] was 62.1%. For the same compound, the viability, T/C [13] was 94%, the viability, T/C [14] was 89% and the viability, T/C [15] was 84.4%. The viability, T/C [16] was 83.4%, the viability, T/C [17] was 74% and the viability, T/C [18] was 61.5%. For the same compound, the viability, T/C [19] was 95.2%, the viability, T/C [20] was 85.2% and the viability, T/C [21] was 96%. The viability, T/C [22] was 78.4%, the viability, T/C [23] was 80.8% and the viability, T/C [24] was 61.7%. For the same compound, the viability, T/C [25] was 97.8%, the viability, T/C [26] was 97.8% and the viability, T/C [27] was 91.2%. It also gave a viability, T/C [28] of 74%, a viability, T/C [29] of 72.2% and a viability, T/C [30] of 57.3%. For the same compound, the viability, T/C [31] was 91.3%, the viability, T/C [32] was 87.5% and the viability, T/C [33] was 72.1%. It also gave a viability, T/C [34] of 74%, a viability, T/C [35] of 70.3% and a viability, T/C [36] of 55.8%.

Compound `Nc1ccn(C2OC(CO)C(O)C2(F)F)c(=O)n1` (centres undefined) + Nc1ccc(C#CCN(C(=O)Cc2ncc(C(F)(F)F)cc2C(F)(F)F)c2ccc(F)cc2)nn1 has a pIC50 (second compound 0.0316 µM) of over 7.50, a pIC50 (second compound 0.1 µM) of over 7.50 and a pIC50 (second compound 0.316 µM) of over 7.50. The pIC50 (second compound 1 µM) was over 7.50, the pIC50 (second compound 3.16 µM) was over 7.50 and the pIC50 (second compound 10 µM) was over 7.50. The viability, T/C [1] was 6.99%, the viability, T/C [2] was 8.25% and the viability, T/C [3] was 7.01%. For the same compound, the viability, T/C [4] was 6.38%, the viability, T/C [5] was 8.02% and the viability, T/C [6] was 5.63%. For the same compound, the viability, T/C [7] was 8.85%, the viability, T/C [8] was 7.54% and the viability, T/C [9] was 7.93%. The viability, T/C [10] was 6.21%, the viability, T/C [11] was 7.06% and the viability, T/C [12] was 5.26%. The viability, T/C [13] was 7.49%, the viability, T/C [14] was 6.66% and the viability, T/C [15] was 6.67%. It also gave a viability, T/C [16] of 7.27%, a viability, T/C [17] of 6.52% and a viability, T/C [18] of 5.87%. It also gave a viability, T/C [19] of 9.44%, a viability, T/C [20] of 6.21% and a viability, T/C [21] of 6.52%. The viability, T/C [22] was 6.07%, the viability, T/C [23] was 6.68% and the viability, T/C [24] was 5.65%. The viability, T/C [25] was 9.42%, the viability, T/C [26] was 6.2% and the viability, T/C [27] was 6.31%. For the same compound, the viability, T/C [28] was 6.8%, the viability, T/C [29] was 7.81% and the viability, T/C [30] was 5.38%. It also gave a viability, T/C [31] of 7.43%, a viability, T/C [32] of 5.82% and a viability, T/C [33] of 5.66%. It also gave a viability, T/C [34] of 6.28%, a viability, T/C [35] of 7.1% and a viability, T/C [36] of 4.05%.
